“Also recorded” adds a separate entry of the source. One block for each compound: values may come before it.
Columns and labels:
[1] = system: intestinal damage caused by protein-energy malnutrition; assay: Intestinal damage caused by protein-energy malnutrition in pigs; format: in vivo, pig; conditions: for Ileal mucosa histology (electron transmission microscopy) / Jejunal mucosa histology (electron transmission microscopy): malnourished pigs fed ENSURE PLUS plus supplement; for Alkaline phosphatase (AP) activity in jejunum: versus caseinate supplement; for T helper (CD4+) subpopulation of intra-epithelial lymphocytes in jejunum: versus control group
Method: A study was conducted to evaluate the potential effects of N-acetyl-L-glutamine versus free glutamine on intestinal damage caused by protein-energy malnutrition in pigs. In this study, 5-week-old domestic pigs, were provided by a certified farm. The pigs were randomly assigned to one of two groups. In one group 3 pigs were freely fed with ENSURE PLUS® (Ross Products Division, Abbott Laboratories) for 30 days. In the second group, 9 pigs were also fed with ENSURE PLUS®, but at only 20% of the daily intake of the first group. This second group was divided into 3 subgroups with […] each to receive a daily supplement of either calcium caseinate, glutamine or N-acetyl-L-glutamine. Daily average energy and protein supplied to the control group ranged from 3300 kcal, 138 g protein at the beginning of the study to 4500 kcal, 187 g protein at the end of the study. In the second group, supplements of caseinate, glutamine and N-acetyl-L-glutamine provided an additional 1.32 grams nitrogen equivalents per day (basically, 6.89 grams L-glutamine, or 8.87 grams N-acetyl-L-glutamine or 8.42 grams caseinate protein are supplemented per day). After 30 days, all pigs were deprived of food for 16 hours. The animals were then weighed, sedated, anesthetized and sacrificed through terminal bleeding by jugular puncture.
The entire small intestine was quickly removed. The 60 cm segment of the small intestine from the ligament of Treitz was considered proximal jejunum. A 5 cm long segment from the ligament of Treitz was selected for histological analysis of jejunum. The 60 cm length closest to the ileo-cecal valve was considered the distal ileum. A 5 cm segment from the ileo-cecal valve was selected for histological analysis of the ileum. The intestine segments were rinsed thoroughly with ice-cold saline solution, opened length-wise and blotted dry. The mucosa was scraped off using a glass slide onto a cold Petri dish, weighed, immediately frozen under liquid nitrogen and stored at −80° C. until biochemical analysis.
Jejunal and ileal mucosa were homogenized in 10 mM phosphate buffer (pH 7.4) using a mechanical Potter homogenizer, for protein and DNA assays. For the determination of the enzymatic markers of injury, functionality and antioxidant defense system, the mucosal homogenates were centrifuged at 3000 g for 10 min. and the resulting supernatants were used for enzymatic assays. For the determination of total glutathione, the mucosa was homogenized in 5% trichloroacetic acid and centrifuged at 8000 g for 5 min.
Biochemical analysis and immunological analysis were performed on the specimens. Concentrations of intestinal mucosa protein and DNA were determined using the Bradford method (Analytical Biochemistry, Volume 72, pages 248-254, 1976) and the method of Labarca and Paigen (Analytical Biochemistry, Volume 102 (2), pages 344-352, 1980), respectively. The degree of intestinal damage caused by malnutrition was evaluated by measuring alkaline phosphatase activity using the method of Goldstein (R. Goldstein, T. Klein, S. Freier and J. Menczel. American Journal of Clinical Nutrition 24: 1224-1231, 1970).
Glutathione reductase activity was evaluated by the method of Carlberg and Mannervik (I. Carlberg and B. Mannervik, Methods in Enzymology, Volume 113, pp 484-490, 1985). Glutathione transferase activity was measured using the method of Habig, et al. (W. H. Habig, M. J. Pabst and W. B. Jakoby, Journal of Biological Chemistry. […]). Glutathione peroxidase activity was assayed by the method of Flohe and Gunzler (L. Flohe and W. A. Gunzler, Methods in Enzymology, Volume 105, pp 114-121, 1984), and the non-protein sulfhydryl content (reported as reduced glutathione equivalents) was determined by the method of Anderson (M. E. Anderson, Methods in Enzymology, 133: 548-554, 1985). […]

[2] = Aqueous stability at various pH values, ambient temperature (HPLC); format: physicochemical; conditions: for GLN (glutamine) in glutamine solution / PGA (pyroglutamic acid) in glutamine solution: pH 6.0, 1 mg/mL
Method: HPLC analysis was conducted using an Inertsil® C8, 5 micrometer, 4.6×250 mm column (obtained from Keystone Scientific, Inc., Bellefonte, Pa.). The mobile phase was water adjusted to pH 2.2 with HCl (isocratic at 1 mL/minute). The injection volume was 10 microliters. Ultraviolet detection was at 214 nm. In order to test the stability of N-acetyl-L-glutamine in aqueous solutions at various pH values, the following procedure was followed. Aqueous solutions of N-acetyl-L-glutamine were prepared in 1 pH unit increments from pH 2.0 to 8.0. The pH of the solutions was adjusted with either hydrochloric acid or sodium hydroxide, as needed, just prior to final dilution (final concentration=1 mg/mL or 5.3 mM N-acetyl-L-glutamine). A single solution of glutamine was not pH adjusted (measured pH=6.0) and was prepared at 1 mg/mL or 6.8 mM glutamine. All solutions were sterile-filtered (Millipore Millex®-GS, 25 mm, 0.22 micrometer pore size, sterile) into autosampler vials and capped for storage at ambient temperature (17-25° C.). N-acetyl-L-glutamine samples were assessed by HPLC at various time points, from 1 to 180 days. The glutamine sample was assessed by HPLC at similar time points, from 1 to 45 days.

[3] = administered intravenously, humans; cited from earlier work
[4] = pH 3.0, ambient temperature, 6 months

GLN (glutamine) in glutamine solution ([2]; ambient temperature, 2 days): 100.0 height percent | PGA (pyroglutamic acid) in glutamine solution ([2]; ambient temperature, 2 days): none detected | GLN (glutamine) in glutamine solution ([2]; ambient temperature, 3 days): 99.8 height percent | PGA (pyroglutamic acid) in glutamine solution ([2]; ambient temperature, 3 days): 0.2 height percent | GLN (glutamine) in glutamine solution ([2]; ambient temperature, 7 days): 99.5 height percent | PGA (pyroglutamic acid) in glutamine solution ([2]; ambient temperature, 7 days): 0.5 height percent | GLN (glutamine) in glutamine solution ([2]; ambient temperature, 15 days): 99.0 height percent | PGA (pyroglutamic acid) in glutamine solution ([2]; ambient temperature, 15 days): 1.0 height percent | GLN (glutamine) in glutamine solution ([2]; ambient temperature, 30 days): 98.1 height percent | PGA (pyroglutamic acid) in glutamine solution ([2]; ambient temperature, 30 days): 1.9 height percent | GLN (glutamine) in glutamine solution ([2]; ambient temperature, 45 days): 96.7 height percent | PGA (pyroglutamic acid) in glutamine solution ([2]; ambient temperature, 45 days): 3.3 height percent
SMILES: NC(=O)CC[C@H](N)C(=O)O [Glutamine, glutamine]
Ileal mucosa histology (electron transmission microscopy) ([1]; 30 days): displayed loss of microvilli, wide intercellular spaces, and intense lymphocytes infiltration | Jejunal mucosa histology (electron transmission microscopy) ([1]; 30 days): displayed shortened microvilli, expanded intercellular spaces, and irregular lobulated nucleus | Prevention of biochemical and immunological changes induced by malnutrition in the small intestine ([1]; malnourished pigs, 30 days): no clear effect | Alkaline phosphatase (AP) activity in jejunum ([1]; malnourished pigs, 30 days): tended to have higher AP activity | Total number of peyer's patch lymphocytes in ileum ([1]; malnourished pigs, versus N-acetyl-glutamine-supplemented or control groups): significantly lower | T helper (CD4+) subpopulation of intra-epithelial lymphocytes in jejunum ([1]; malnourished pigs): significantly higher

SMILES: CC(=O)N[C@@H](CCC(N)=O)C(=O)O [N-acetyl-L-glutamine]
Dose excreted in the urine [3]: 20-40% | Prevention of overt signs of inflammation in the epithelial lining of the gastrointestinal tract ([1]; electron transmission micrographs, malnourished pigs): more effective than glutamine | Ileal mucosa histology (electron transmission microscopy) ([1]; 30 days): less affected by protein-energy malnutrition | Jejunal mucosa histology (electron transmission microscopy) ([1]; 30 days): less affected by protein-energy malnutrition | Glutathione transferase activity in small intestine ([1]; malnourished pigs, 30 days): less affected by the malnutrition process | Number of CD1+ intra-epithelial lymphocytes in jejunum ([1]; malnourished pigs, 30 days): significantly higher than in the rest of the groups | Prevention of biochemical and immunological changes induced by malnutrition in the small intestine ([1]; malnourished pigs, 30 days): performed better than the glutamine or caseinate supplemented groups; also recorded: positive effect | Intestinal contents of protein (jejunum and ileum) and DNA (ileum) ([1]; malnourished pigs, 30 days, versus caseinate or glutamine supplement): tended to be higher | Amount of GSH in the intestinal mucosa ([1]; malnourished pigs, 30 days, versus caseinate or glutamine, did not reach significance): tended to be slightly higher | Alkaline phosphatase (AP) activity in jejunum ([1]; malnourished pigs, 30 days): tended to have higher AP activity | Total number of peyer's patch lymphocytes in jejunum ([1]; malnourished pigs, versus caseinate- or glutamine-supplemented groups): tendency of the total number of peyer's patch lymphocytes to be higher | T helper (CD4+) subpopulation of intra-epithelial lymphocytes in jejunum ([1]; malnourished pigs): significantly higher | Degradation of N-acetyl-L-glutamine ([2]; 1 mg/mL, all pH values (2.0 to 8.0), ambient temperature, through 7 days): no degradation | N-acetyl-L-glutamine remaining ([2]; pH 2.0, ambient temperature, 6 months): 55.7% | N-acetyl-L-glutamine remaining ([2]; pH 2.0, ambient temperature, 15 days): 97.0% | N-acetyl-L-glutamine remaining ([2]; pH 3.0, ambient temperature, 4 months): 94.2% | N-acetyl-L-glutamine remaining [2, 4]: 90.4% | N-acetyl-glutamic acid and 2,6-dioxopiperidinylacetamide (approximately equal levels) [2, 4]: about 5% | N-acetyl-glutamic acid and 2,6-dioxopiperidinylacetamide (approximately equal levels) ([2]; pH 3.0, ambient temperature, 15 days): about 0.15% | N-acetyl-glutamic acid and 2,6-dioxopiperidinylacetamide (approximately equal levels) ([2]; pH 3.0, ambient temperature, 30 days): about 1% | N-acetyl-L-glutamine remaining ([2]; pH 3.0, ambient temperature, through 90 days): > 95% | N-acetyl-L-glutamine remaining ([2]; pH 4.0, ambient temperature, six months): 97.9% | N-acetyl-L-glutamine remaining ([2]; pH 5.0 to 8.0, ambient temperature, 6 months): greater than 99.6%

— patent US20030134851A1, “Methods and compositions for providing glutamine” (priority 2001, published 2003)
